Assay results as given in patent US10881653B2, “Tricyclic compounds and their use in the treatment of cancer” (The United States of America, as represented by the …, priority 2015, dated 2021).
Structures can show the parent of a compound that is named as a salt. Where two headings read alike, the source gives them in different places.

Experiments:
[1] = target: T1, recombinant thioredoxin reductase 1 (TrxR1) (Homo sapiens, UniProt Q16881); assay: Inhibition of recombinant TrxR1 (DTNB assay); format: biochemical
T1 sequence (Q16881 1-649): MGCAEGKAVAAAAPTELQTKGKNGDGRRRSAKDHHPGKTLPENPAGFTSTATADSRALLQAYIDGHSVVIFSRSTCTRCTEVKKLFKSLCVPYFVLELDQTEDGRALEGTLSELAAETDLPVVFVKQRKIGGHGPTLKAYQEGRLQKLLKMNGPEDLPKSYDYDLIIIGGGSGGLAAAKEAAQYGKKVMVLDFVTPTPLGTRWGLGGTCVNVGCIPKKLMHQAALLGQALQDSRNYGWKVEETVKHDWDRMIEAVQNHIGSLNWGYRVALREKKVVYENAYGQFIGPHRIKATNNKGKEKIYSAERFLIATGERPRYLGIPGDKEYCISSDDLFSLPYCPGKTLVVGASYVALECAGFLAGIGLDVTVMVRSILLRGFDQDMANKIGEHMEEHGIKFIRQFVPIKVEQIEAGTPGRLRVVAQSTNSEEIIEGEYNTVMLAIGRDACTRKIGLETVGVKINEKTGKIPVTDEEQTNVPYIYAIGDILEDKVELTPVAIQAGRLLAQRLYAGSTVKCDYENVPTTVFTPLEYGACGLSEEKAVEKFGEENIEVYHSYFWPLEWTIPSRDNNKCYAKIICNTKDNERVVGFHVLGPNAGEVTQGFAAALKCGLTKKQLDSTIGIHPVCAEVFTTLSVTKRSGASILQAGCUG
Description: (§1) Small molecule inhibition of recombinant thioredoxin reductase 1 (TrxR1) and gluthathione reductase (GR) was examined in 96-well plate format. 15 nM TrxR1 was incubated in the presence of 250 μM NADPH, 0.1 mg/ml BSA, and various concentrations of the compound of Example 1 (1% DMSO final) in 50 mM Tris (pH 7.5) and 2 mM EDTA buffer for 15 minutes. Following the incubation period, 2.5 mM DTNB was added to each well and the change in O.D. at 412 nm was followed. Percent activity was determined using DMSO vehicle and no TrxR1 (blank) controls. 2 nM GR was incubated in the presence of 250 μM NADPH, 0.1 mg/ml BSA, and various concentrations of compounds (1% DMSO final) in 50 mM Tris (pH 7.5) and 2 mM EDTA buffer for 15 minutes. Following the incubation period, 1 mM GSSG was added to each well and the change in O.D. at 340 nm was followed. Percent activity was determined using DMSO vehicle and no GR (blank) controls.

[2] = target: T2, gluthathione reductase (GR) (Homo sapiens, UniProt P00390); assay: Inhibition of recombinant GR (GSSG assay); format: biochemical
T2 sequence (P00390 44-522): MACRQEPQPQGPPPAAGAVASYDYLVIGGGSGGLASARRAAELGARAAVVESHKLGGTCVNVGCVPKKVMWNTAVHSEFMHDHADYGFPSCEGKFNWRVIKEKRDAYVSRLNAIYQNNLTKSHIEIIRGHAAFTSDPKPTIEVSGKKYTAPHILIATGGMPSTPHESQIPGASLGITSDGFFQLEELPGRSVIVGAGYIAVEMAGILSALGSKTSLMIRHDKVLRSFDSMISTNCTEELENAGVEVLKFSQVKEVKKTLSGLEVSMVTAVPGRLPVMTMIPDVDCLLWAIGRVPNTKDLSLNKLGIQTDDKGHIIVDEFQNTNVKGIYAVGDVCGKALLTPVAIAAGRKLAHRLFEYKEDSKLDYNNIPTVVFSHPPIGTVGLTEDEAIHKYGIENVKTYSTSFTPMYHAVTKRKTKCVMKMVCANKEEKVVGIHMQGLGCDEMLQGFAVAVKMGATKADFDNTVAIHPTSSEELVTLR
Description: as §1

[3] = Biological Example 4, assays of Biological Example 1, read-out: TrxR Inhibition
[4] = Biological Example 4, assays of Biological Example 1
[5] = Biological Example 1, 15 nM TrxR1, 250 μM NADPH, 15 minutes incubation, read-out: TrxR inhibition
[6] = Biological Example 1, 2 nM GR, 250 μM NADPH, 15 minutes incubation

Row | SMILES | IC50 [1, 3] | IC50 [2, 4] | IC50 [1, 5] | IC50 [2, 6]
1 | Cc1ccc(F)c(CN2C3C=CC(=O)C2C2C(=O)N(c4ccccc4)C(=O)C23)c1F (stereo not drawn) [Example 38, endo-11-(2,6-Difluoro-3-methylbenzyl)-4-phenyl-4,11-diazatricyclo-[5.3.1.0^2,6]undec-9-ene-3,5,8-trione Trifluoroacetate] | 1.36 µM | 12.3 µM | – | –
2 | Cc1ccc(F)c(CN2C3C=CC(=O)C2C2C(=O)N(c4ccccc4)C(=O)C23)c1F (stereo not drawn) [Example 39, exo-11-(2,6-Difluoro-3-methylbenzyl)-4-phenyl-4,11-diazatricyclo[5.3.1.0^2,6]-undec-9-ene-3,5,8-trione Trifluoroacetate] | 1.29 µM | > 100 µM | – | –
3 | O=C1C=CC2C3C(=O)N(c4ccccc4)C(=O)C3C1N2Cc1cccc(Cl)c1 (stereo not drawn) [Example 42, exo-11-(3-Chlorobenzyl)-4-phenyl-4,11-diazatricyclo[5.3.1.0^2,6]undec-9-ene-3,5,8-trione Trifluoroacetate] | 0.76 µM | 76.4 µM | – | –
4 | CN1C(=O)[C@@H]2[C@H](C1=O)[C@H]1C(=O)C=C[C@@H]2N1Cc1ccccc1 (relative stereo) [Example 51, exo-11-Benzyl-4-methyl-4,11-diazatricyclo[5.3.1.0^2,6]undec-9-ene-3,5,8-trione Trifluoroacetate] | 4.61 µM | > 100 µM | – | –
5 | Cc1cc(C)cc(CN2C3C=CC(=O)C2C2C(=O)N(c4ccccc4)C(=O)C23)c1 (stereo not drawn) [Example 33, exo-11-(3,5-Dimethylbenzyl)-4-phenyl-4,11-diazatricyclo[5.3.1.0^2,6]undec-9-ene-3,5,8-trione Trifluoroacetate] | 1.33 µM | > 100 µM | – | –
6 | O=C1C=CC2C3C(=O)N(c4ccccc4)C(=O)C3C1N2Cc1cccc(C(F)(F)F)c1 (stereo not drawn) [Example 32, 4-Phenyl-11-(3-trifluorobenzyl)-4,11-diazatricyclo[5.3.1.0^2,6]undec-9-ene-3,5,8-trione Trifluoroacetate] | 1.44 µM | 35.8 µM | – | –
7 | Cc1cccc(CN2[C@@H]3C(=O)C=C[C@H]2[C@@H]2C(=O)N(c4c(C)cccc4C)C(=O)[C@@H]23)c1 (relative stereo) [Example 65, exo 4-(2,6-Dimethylphenyl)-11-(3-methylbenzyl)-4,11-diazatricyclo-[5.3.1.0^2,6]undec-9-ene-3,5,8-trione Trifluoroacetate] | 5.3 µM | > 100 µM | 4.52 µM | > 100 µM
8 | CCN1C(=O)[C@@H]2[C@H](C1=O)[C@H]1C(=O)C=C[C@@H]2N1C (relative stereo) [Example 61, exo-4-Ethyl-11-methyl-4,11-diazatricyclo[5.3.1.0^2,6]undec-9-ene-3,5,8-trione Trifluoroacetate] | 23.4 µM | > 100 µM | – | –
9 | O=C1C=CC2C3C(=O)N(c4ccccc4)C(=O)C3C1N2Cc1cccc(C(F)(F)F)c1F (stereo not drawn) [Example 44, exo-11-(2-Fluoro-3-(trifluoromethyl)benzyl)-4-phenyl-4,11-diazatricyclo-[5.3.1.0^2,6]undec-9-ene-3,5,8-trione Trifluoroacetate] | 2.33 µM | – | – | –

The remaining compounds from weak to strong by IC50 [1, 3], led by results:

Row | IC50 [1, 3] | IC50 [2, 4] | IC50 [1, 5] | IC50 [2, 6] | SMILES
10 | 4.15 µM | > 100 µM | – | – | CCN1C(=O)[C@@H]2[C@H](C1=O)[C@H]1C(=O)C=C[C@@H]2N1Cc1ccccc1 (relative stereo) [Example 47, exo-11-Benzyl-4-ethyl-4,11-diazatricyclo[5.3.1.0^2,6]undec-9-ene-3,5,8-trione Trifluoroacetate]
11 | 4.15 µM | > 100 µM | 7.4 µM | > 100 µM | Cc1cccc(CN2[C@@H]3C(=O)C=C[C@H]2C2C(=O)N(c4cccc(N5CCOCC5)c4)C(=O)C23)c1 (stereo partly drawn) [Example 69, endo-11-(3-Methylbenzyl)-4-(3-(4-morpholino)phenyl)-4,11-diazatricyclo-[5.3.1.0^2,6]undec-9-ene-3,5,8-trione Trifluoroacetate]
12 | 2.62 µM | > 100 µM | 2.26 µM | > 100 µM | Cc1cccc(CN2[C@@H]3C(=O)C=C[C@H]2[C@@H]2C(=O)N(c4cccc(N5CCOCC5)c4)C(=O)[C@@H]23)c1 (relative stereo) [Example 70, exo-11-(3-Methylbenzyl)-4-(3-(4-morpholino)phenyl)-4,11-diazatricyclo-[5.3.1.0^2,6]undec-9-ene-3,5,8-trione Trifluoroacetate]
13 | 2.03 µM | 28.5 µM | – | – | O=C1C=CC2C3C(=O)N(c4ccccc4)C(=O)C3C1N2Cc1ccc(F)cc1 (stereo not drawn) [Example 8, 11-(4-Fluorobenzyl)-4-phenyl-4,11-diazatricyclo[5.3.1.0^2,6]undec-9-ene-3,5,8-trione Trifluoroacetate]
14 | 1.99 µM | > 100 µM | 1.31 µM | > 100 µM | NS(=O)(=O)c1cccc(CN2[C@@H]3C(=O)C=C[C@H]2[C@@H]2C(=O)N(c4ccccc4)C(=O)[C@@H]23)c1 (relative stereo) [Example 67, exo-3-((3,5,10-Trioxo-4-phenyl-4,11-diazatricyclo[5.3.1.0^2,6]undec-8-en-11-yl)methyl)benzenesulfonamide Trifluoroacetate]
15 | 1.85 µM | > 100 µM | 1.85 µM | > 100 µM | O=C1C=C[C@H]2[C@@H]3C(=O)N(C4CCCCC4)C(=O)[C@@H]3[C@@H]1N2Cc1ccccc1 (relative stereo) [Example 9, exo-11-Benzyl-4-cyclohexyl-4,11-diazatricyclo[5.3.1.0^2,6]undec-9-ene-3,5,8-trione Trifluoroacetate]
16 | 1.81 µM | > 100 µM | – | – | Cc1cccc(CN2[C@@H]3C(=O)C=C[C@H]2C2C(=O)N(C)C(=O)C23)c1 (stereo partly drawn) [Example 52]
17 | 1.8 µM | > 100 µM | – | – | O=C1C=C[C@H]2[C@@H]3C(=O)N(c4ccc(O)cc4)C(=O)[C@@H]3[C@@H]1N2Cc1ccccc1 (relative stereo) [Example 54, exo-11-Benzyl-4-(4-hydroxyphenyl)-4,11-diazatricyclo[5.3.1.0^2,6]undec-9-ene-3,5,8-trione Trifluoroacetate]
18 | 1.64 µM | > 100 µM | – | – | CC(C)(C)N1C(=O)[C@@H]2[C@H](C1=O)[C@H]1C(=O)C=C[C@@H]2N1Cc1ccccc1 (relative stereo) [Example 17, exo-11-Benzyl-4-(tert-butyl)-4,11-diazatricyclo[5.3.1.0^2,6]undec-9-ene-3,5,8-trione Trifluoroacetate]
19 | 1.4 µM | > 100 µM | – | – | COC(=O)c1cccc(CN2[C@@H]3C(=O)C=C[C@H]2[C@H]2C(=O)N(c4ccccc4)C(=O)[C@H]23)c1 (relative stereo) [Example 45, endo-Methyl 3-((3,5,10-trioxo-4-phenyl-4,11-diazatricyclo[5.3.1.0^2,6]undec-8-en-11-yl)methyl)benzoate]
20 | 1.24 µM | 75.2 µM | 1.97 µM | > 100 µM | COc1cccc(CN2[C@@H]3C(=O)C=C[C@H]2[C@@H]2C(=O)N(c4ccccc4)C(=O)[C@@H]23)c1 (relative stereo) [Example 22, exo-11-(3-Methoxybenzyl)-4-phenyl-4,11-diazatricyclo[5.3.1.0^2,6]undec-9-ene-3,5,8-trione Trifluoroacetate]
